Measurements from patent US6355799B1, “Substituted benzene compounds, process for their preparation, and herbicidal and defoliant compositions containing them” (ISK Americas Incorporated, priority 1997, dated 2002).

How the values were obtained:
Format in all cases: in vivo
[1] = tested on: johnsongrass (Sorghum halepense, SORHA); test: Post-emerge test, greenhouse herbicide activity screening; conditions: Sorghum halepense, post-emergence, 336 h, phytotoxicity rating 0-100 (0 no damage, 100 complete death), 14 days after application, read-out: Post-emerge Herbicidal Activity SORHA
Method in brief: (§1)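 Visual ratings on a 0-100 scale (0 no damage, 100 all plants dead) were taken at 14 days after treatment. Rates of 15-1000 g ai/ha in acetone, 187 l/ha, were sprayed onto soil one day after planting (pre-emerge) or onto 2-3 leaf plants with 0.25% v/v surfactant (post-emerge).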

[2] = tested on: velvetleaf (Abutilon theophrasti, ABUTH); test: as above; conditions: Abutilon theophrasti, post-emergence, 336 h, phytotoxicity rating 0-100 (0 no damage, 100 complete death), 14 days after application, read-out: Post-emerge Herbicidal Activity ABUTH
Method in brief: as §1

[3] = tested on: ivyleaf morningglory (Ipomoea hederacea, IPOHE); test: as above; conditions: Ipomoea, post-emergence, 336 h, phytotoxicity rating 0-100 (0 no damage, 100 complete death), 14 days after application, read-out: Post-emerge Herbicidal Activity IPOHE
Method in brief: as §1

[4] = tested on: barnyardgrass (Echinochloa crus-galli, ECHCG); test: as above; conditions: Echinochloa crus-galli, post-emergence, 336 h, phytotoxicity rating 0-100 (0 no damage, 100 complete death), 14 days after application, read-out: Post-emerge Herbicidal Activity ECHCG
Method in brief: as §1

[5] = tested on: lambsquarters (Chenopodium album, CHEAL); test: as above; conditions: Chenopodium album, post-emergence, 336 h, phytotoxicity rating 0-100 (0 no damage, 100 complete death), 14 days after application, read-out: Post-emerge Herbicidal Activity CHEAL
Method in brief: as §1

[6] = tested on: sicklepod (Cassia obtusifolia, CASOB); test: as above; conditions: Senna obtusifolia, post-emergence, 336 h, phytotoxicity rating 0-100 (0 no damage, 100 complete death), 14 days after application, read-out: Post-emerge Herbicidal Activity CASOB
Method in brief: as §1

[7] = tested on: large crabgrass (Digitaria sanguinalis, DIGSA); test: Pre-emerge test, greenhouse herbicide activity screening; conditions: pre-emerge; for Pre-emerge Herbicidal Activity DIGSA (phytotoxicity rating, scale 0-100): rated 14 days after application, 0 = no damage, 100 = complete death; for phytotoxicity rating DIGSA: 14 days after application, rating scale 0-100
Method in brief: (§2)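 Applied at 15–1000 g ai/ha from acetone in 187 l/ha spray volume. Post-emergence applications included 0.25% v/v non-ionic surfactant and reached plants sown 8–21 days before. Pre-emergence applications were incorporated by surface watering. Efficacy or crop damage was rated on a 0–100 scale after 14 days.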

[8] = tested on: johnsongrass (Sorghum halepense, SORHA); test: as above; conditions: pre-emerge; for Pre-emerge Herbicidal Activity SORHA (phytotoxicity rating, scale 0-100): rated 14 days after application, 0 = no damage, 100 = complete death; for phytotoxicity rating SORHA: 14 days after application, rating scale 0-100
Method in brief: as §2

[9] = tested on: velvetleaf (Abutilon theophrasti, ABUTH); test: as above; conditions: pre-emerge; for Pre-emerge Herbicidal Activity ABUTH (phytotoxicity rating, scale 0-100): rated 14 days after application, 0 = no damage, 100 = complete death; for phytotoxicity rating ABUTH: 14 days after application, rating scale 0-100
Method in brief: as §2

[10] = tested on: ivyleaf morningglory (Ipomoea hederacea, IPOHE); test: as above; conditions: pre-emerge; for Pre-emerge Herbicidal Activity IPOHE (phytotoxicity rating, scale 0-100): rated 14 days after application, 0 = no damage, 100 = complete death; for phytotoxicity rating IPOHE: 14 days after application, rating scale 0-100
Method in brief: as §2

[11] = tested on: barnyardgrass (Echinochloa crus-galli, ECHCG); test: as above; conditions: pre-emerge; for Pre-emerge Herbicidal Activity ECHCG (phytotoxicity rating, scale 0-100): rated 14 days after application, 0 = no damage, 100 = complete death; for phytotoxicity rating ECHCG: 14 days after application, rating scale 0-100
Method in brief: as §2

[12] = tested on: green foxtail (Setaria viridis, SETVI); test: as above; conditions: pre-emerge; for Pre-emerge Herbicidal Activity SETVI (phytotoxicity rating, scale 0-100): rated 14 days after application, 0 = no damage, 100 = complete death; for phytotoxicity rating SETVI: 14 days after application, rating scale 0-100
Method in brief: as §2

[13] = tested on: lambsquarters (Chenopodium album, CHEAL); test: as above; conditions: pre-emerge; for Pre-emerge Herbicidal Activity CHEAL (phytotoxicity rating, scale 0-100): rated 14 days after application, 0 = no damage, 100 = complete death; for phytotoxicity rating CHEAL: 14 days after application, rating scale 0-100
Method in brief: as §2

[14] = tested on: sicklepod (Cassia obtusifolia, CASOB); test: as above; conditions: pre-emerge; for Pre-emerge Herbicidal Activity CASOB (phytotoxicity rating, scale 0-100): rated 14 days after application, 0 = no damage, 100 = complete death; for phytotoxicity rating CASOB: 14 days after application, rating scale 0-100
Method in brief: as §2

SMILES: COc1c(Cl)cc(F)c(-n2c(=O)cc(C(F)(F)F)n(C)c2=O)c1N [Compound 1-4, 3-(2-amino-4-chloro-6-fluoro-3-methoxyphenyl)-1-methyl-6-trifluoromethyl-2,4(1H, 3H)-pyrimidinedione]
- pest or weed control at 63 g/ha ([1]; 63 g ai/ha): 0%
- pest or weed control at 250 g/ha ([1]; 250 g ai/ha): 70%
- pest or weed control at 63 g/ha ([2]; 63 g ai/ha): 100%
- pest or weed control at 250 g/ha ([2]; 250 g ai/ha): 100%
- pest or weed control at 63 g/ha ([3]; 63 g ai/ha): 100%
- pest or weed control at 250 g/ha ([3]; 250 g ai/ha): 100%
- pest or weed control at 63 g/ha ([4]; 63 g ai/ha): 0%
- pest or weed control at 250 g/ha ([4]; 250 g ai/ha): 40%
- pest or weed control at 63 g/ha ([5]; 63 g ai/ha): 60%
- pest or weed control at 250 g/ha ([5]; 250 g ai/ha): 95%
- pest or weed control at 63 g/ha ([6]; 63 g ai/ha): 60%
- pest or weed control at 250 g/ha ([6]; 250 g ai/ha): 100%
- Pre-emerge Herbicidal Activity DIGSA (phytotoxicity rating, scale 0-100) ([7]; 63 g ai/ha): 100
- Pre-emerge Herbicidal Activity DIGSA (phytotoxicity rating, scale 0-100) ([7]; 250 g ai/ha): 100
- phytotoxicity rating DIGSA ([7]; 3.9 g ai/ha): 0
- phytotoxicity rating DIGSA ([7]; 7.8 g ai/ha): 30
- phytotoxicity rating DIGSA ([7]; 15.6 g ai/ha): 30
- phytotoxicity rating DIGSA ([7]; 31.3 g ai/ha): 30
- phytotoxicity rating DIGSA ([7]; 62.5 g ai/ha): 95
- phytotoxicity rating DIGSA ([7]; 125 g ai/ha): 100
- phytotoxicity rating DIGSA ([7]; 250 g ai/ha): 100
- Pre-emerge Herbicidal Activity SORHA (phytotoxicity rating, scale 0-100) ([8]; 63 g ai/ha): 85
- Pre-emerge Herbicidal Activity SORHA (phytotoxicity rating, scale 0-100) ([8]; 250 g ai/ha): 100
- phytotoxicity rating SORHA ([8]; 3.9 g ai/ha): 0
- phytotoxicity rating SORHA ([8]; 7.8 g ai/ha): 0
- phytotoxicity rating SORHA ([8]; 15.6 g ai/ha): 0
- phytotoxicity rating SORHA ([8]; 31.3 g ai/ha): 30
- phytotoxicity rating SORHA ([8]; 62.5 g ai/ha): 40
- phytotoxicity rating SORHA ([8]; 125 g ai/ha): 95
- phytotoxicity rating SORHA ([8]; 250 g ai/ha): 100
- Pre-emerge Herbicidal Activity ABUTH (phytotoxicity rating, scale 0-100) ([9]; 63 g ai/ha): 100
- Pre-emerge Herbicidal Activity ABUTH (phytotoxicity rating, scale 0-100) ([9]; 250 g ai/ha): 100
- phytotoxicity rating ABUTH ([9]; 3.9 g ai/ha): 95
- phytotoxicity rating ABUTH ([9]; 7.8 g ai/ha): 100
- phytotoxicity rating ABUTH ([9]; 15.6 g ai/ha): 100
- phytotoxicity rating ABUTH ([9]; 31.3 g ai/ha): 100
- phytotoxicity rating ABUTH ([9]; 62.5 g ai/ha): 100
- phytotoxicity rating ABUTH ([9]; 125 g ai/ha): 100
- phytotoxicity rating ABUTH ([9]; 250 g ai/ha): 100
- Pre-emerge Herbicidal Activity IPOHE (phytotoxicity rating, scale 0-100) ([10]; 63 g ai/ha): 100
- Pre-emerge Herbicidal Activity IPOHE (phytotoxicity rating, scale 0-100) ([10]; 250 g ai/ha): 100
- phytotoxicity rating IPOHE ([10]; 3.9 g ai/ha): 0
- phytotoxicity rating IPOHE ([10]; 7.8 g ai/ha): 0
- phytotoxicity rating IPOHE ([10]; 15.6 g ai/ha): 0
- phytotoxicity rating IPOHE ([10]; 31.3 g ai/ha): 50
- phytotoxicity rating IPOHE ([10]; 62.5 g ai/ha): 90
- phytotoxicity rating IPOHE ([10]; 125 g ai/ha): 100
- phytotoxicity rating IPOHE ([10]; 250 g ai/ha): 100
- Pre-emerge Herbicidal Activity ECHCG (phytotoxicity rating, scale 0-100) ([11]; 63 g ai/ha): 100
- Pre-emerge Herbicidal Activity ECHCG (phytotoxicity rating, scale 0-100) ([11]; 250 g ai/ha): 100
- phytotoxicity rating ECHCG ([11]; 3.9 g ai/ha): 0
- phytotoxicity rating ECHCG ([11]; 7.8 g ai/ha): 0
- phytotoxicity rating ECHCG ([11]; 15.6 g ai/ha): 0
- phytotoxicity rating ECHCG ([11]; 31.3 g ai/ha): 10
- phytotoxicity rating ECHCG ([11]; 62.5 g ai/ha): 30
- phytotoxicity rating ECHCG ([11]; 125 g ai/ha): 95
- phytotoxicity rating ECHCG ([11]; 250 g ai/ha): 100
- Pre-emerge Herbicidal Activity SETVI (phytotoxicity rating, scale 0-100) ([12]; 63 g ai/ha): 100
- Pre-emerge Herbicidal Activity SETVI (phytotoxicity rating, scale 0-100) ([12]; 250 g ai/ha): 100
- phytotoxicity rating SETVI ([12]; 3.9 g ai/ha): 0
- phytotoxicity rating SETVI ([12]; 7.8 g ai/ha): 60
- phytotoxicity rating SETVI ([12]; 15.6 g ai/ha): 80
- phytotoxicity rating SETVI ([12]; 31.3 g ai/ha): 80
- phytotoxicity rating SETVI ([12]; 62.5 g ai/ha): 100
- phytotoxicity rating SETVI ([12]; 125 g ai/ha): 100
- phytotoxicity rating SETVI ([12]; 250 g ai/ha): 100
- Pre-emerge Herbicidal Activity CHEAL (phytotoxicity rating, scale 0-100) ([13]; 63 g ai/ha): 100
- Pre-emerge Herbicidal Activity CHEAL (phytotoxicity rating, scale 0-100) ([13]; 250 g ai/ha): 100
- phytotoxicity rating CHEAL ([13]; 3.9 g ai/ha): 30
- phytotoxicity rating CHEAL ([13]; 7.8 g ai/ha): 60
- phytotoxicity rating CHEAL ([13]; 15.6 g ai/ha): 100
- phytotoxicity rating CHEAL ([13]; 31.3 g ai/ha): 100
- phytotoxicity rating CHEAL ([13]; 62.5 g ai/ha): 100
- phytotoxicity rating CHEAL ([13]; 125 g ai/ha): 100
- phytotoxicity rating CHEAL ([13]; 250 g ai/ha): 100
- Pre-emerge Herbicidal Activity CASOB (phytotoxicity rating, scale 0-100) ([14]; 63 g ai/ha): 90
- Pre-emerge Herbicidal Activity CASOB (phytotoxicity rating, scale 0-100) ([14]; 250 g ai/ha): 100
- phytotoxicity rating CASOB ([14]; 3.9 g ai/ha): 0
- phytotoxicity rating CASOB ([14]; 7.8 g ai/ha): 30
- phytotoxicity rating CASOB ([14]; 15.6 g ai/ha): 100
- phytotoxicity rating CASOB ([14]; 31.3 g ai/ha): 0
- phytotoxicity rating CASOB ([14]; 62.5 g ai/ha): 80
- phytotoxicity rating CASOB ([14]; 125 g ai/ha): 95
- phytotoxicity rating CASOB ([14]; 250 g ai/ha): 100
